Results on 16 compounds are retold here after patent US11701353B2, “Methods, compositions, and uses of novel FYN kinase inhibitors” (Pathways Neuro Pharma, Inc., priority 2015, dated 2023).

Chain of Fyn (P39688 whole entry): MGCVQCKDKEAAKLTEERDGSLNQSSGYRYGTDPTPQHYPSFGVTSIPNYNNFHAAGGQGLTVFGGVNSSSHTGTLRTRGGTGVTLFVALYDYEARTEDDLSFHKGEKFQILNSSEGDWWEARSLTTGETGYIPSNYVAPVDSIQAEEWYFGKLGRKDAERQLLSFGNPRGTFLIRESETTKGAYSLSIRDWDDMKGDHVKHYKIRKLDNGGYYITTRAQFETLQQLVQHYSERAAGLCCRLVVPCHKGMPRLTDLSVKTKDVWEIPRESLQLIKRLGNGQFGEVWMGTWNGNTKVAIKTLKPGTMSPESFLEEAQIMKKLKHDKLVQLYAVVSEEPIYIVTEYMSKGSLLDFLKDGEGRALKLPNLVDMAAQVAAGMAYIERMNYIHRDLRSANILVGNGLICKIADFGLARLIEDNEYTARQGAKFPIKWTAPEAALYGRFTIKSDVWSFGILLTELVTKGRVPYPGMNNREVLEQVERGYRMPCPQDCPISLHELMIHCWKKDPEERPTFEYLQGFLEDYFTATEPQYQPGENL

The first assay concerns the target Fyn (Mus musculus (Mouse), UniProt P39688).
Assay: not given
The conditions noted are these: Fyn knockout strains; cited from earlier work.
With `CN(C)S(=O)(=O)c1ccc2c(c1)/C(=C/c1cc3c([nH]1)CCCC3)C(=O)N2` [SU6656], the energy utilization result is “no increase” and the lipid utilization entry is “no increase”.

The assay is the same for the next values; noted with them: treated mice relative to untreated control mice; cited from earlier work.
In the case of `CN(C)S(=O)(=O)c1ccc2c(c1)/C(=C/c1cc3c([nH]1)CCCC3)C(=O)N2` [SU6656], the fat mass entry was “significantly reduced”.

The next assay deals with full-length recombinant human FYN A (Homo sapiens (Human), UniProt P06241). Kind of assay: ADP-Glo Kinase Assay, FYN kinase inhibition (primary and secondary screen). The conditions noted are these: primary screen, initial compounds. The format is biochemical. The text has this: The chemical library was comprised of the SoftFocus ATP-competitive hinge binding compounds described by Harris, C. J., Hill, R. D., Sheppard, D. W., et al., The Design and Application of Target-Focused Compound Libraries. Combinatorial Chemistry and High Throughput Screening 14:521-31 (2011). The specific pharmacore chemistries included SFK52 comprising 6-[R2]-3-[R1]imidazo[1,2-b] pyridazine compounds, SFK33 comprising N-(3-[R2] imidazo [1,2-b] pyridazin-6-yl) [R1] amine compounds, SFK49 comprising N-(5-[R2] imidazo [2,1-b][1,3,4] thiadiazol-2-yl)[R1]-amine compounds, SFK 40 comprising 5-[R2]-3-[R1] pyridin-2-amine compounds, SFK43 comprising 6-[R2]-3-[R1]imidazo[1,2-a] pyrazine compounds, and SFK63. The chemical structures of the initial 600 potential kinase inhibitors are presented in Table 3, with those chosen for additional analysis presented in Table 4. Comparison of the compounds presented in Table 1 and those of Tables 2, 3 and 4, illustrate the novelty of the chemical structures claimed herein.
Chain of full-length recombinant human FYN A (P06241 whole entry): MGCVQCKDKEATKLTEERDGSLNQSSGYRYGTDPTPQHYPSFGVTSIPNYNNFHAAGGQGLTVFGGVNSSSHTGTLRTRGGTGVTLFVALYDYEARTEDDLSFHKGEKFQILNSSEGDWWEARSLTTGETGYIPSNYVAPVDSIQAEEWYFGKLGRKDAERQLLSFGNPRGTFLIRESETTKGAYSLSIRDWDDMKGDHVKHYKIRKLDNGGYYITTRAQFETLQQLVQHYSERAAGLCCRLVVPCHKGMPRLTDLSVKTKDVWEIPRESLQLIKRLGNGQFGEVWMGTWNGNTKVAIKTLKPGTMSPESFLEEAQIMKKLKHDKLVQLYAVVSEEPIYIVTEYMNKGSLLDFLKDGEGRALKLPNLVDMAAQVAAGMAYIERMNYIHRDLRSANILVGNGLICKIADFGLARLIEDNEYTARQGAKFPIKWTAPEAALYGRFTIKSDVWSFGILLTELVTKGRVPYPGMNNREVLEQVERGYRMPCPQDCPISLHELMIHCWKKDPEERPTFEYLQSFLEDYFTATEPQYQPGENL
FYN kinase (10 micrograms) was from the FYN A Kinase Enzyme System (V3571, Promega UK Ltd.), a full-length recombinant human FYN A containing an N-terminal GST tag of about 85 kDa, expressed by bacullovirus in […] insect cells, supplied at a concentration of 0.1 microgram/microliter in 5× reaction buffer. The FYN substrate, a 12 amino acid peptide of the sequence […], containing a single tyrosine phosphorylation site, was custom synthesized (Peptide Synthetics, Peptide Protein Research, Fareham, UK) and supplied as a 4 mg/ml aqueous solution. All other reagents were obtained from Sigma (Sigma-Aldrich, Gillingham, Dorset, UK), with the exception of UltraPure ATP (V9102, Promega UK Ltd.) and the ATP-competitive broad spectrum protein kinase inhibitor staurosporine (569397, Merck Millipore, Watford, Hertfordshire, UK), or as otherwise indicated.
The assay procedure determines the IC50 of each potential FYN kinase inhibitor by measuring the enzyme catalyzed ATP-dependent phosphorylation of the FYN substrate peptide. The ADP-Glo™ Kinase Assay is specifically designed to quantify kinase activity by measuring the ADP produced in the reaction The reaction buffer comprises 40 mM Tris·HCl (pH 7.5), 20 mM MgCl2, 0.1 mg/ml BSA and 5 microM DTT. Individual compounds within the chemical library were dissolved in DMSO at known concentrations. Briefly, 2.5 microliters of reaction buffer containing 3 picograms of FYN kinase and serial dilutions of each potential FYN kinase inhibitor (9 3-fold dilutions of a 10 micromolar top sample) are placed into each well of a 384 well microtiter plate and incubated at room temperature for 30 minutes. An additional 2.5 microliters of reaction buffer containing 100 picograms of the FYN substrate and 12.5 picomoles of ATP are then added to each well and the reaction carried out for 90 minutes at room temperature. The reactions are terminated by addition of 5 microliters of the ADP-Glo™ Reagent component of the ADP-Glo™ Kinase Assay kit to each well. The ADP-Glo™ Reagent comprises an ATP-dependent adenylate cyclase, an inorganic pyrophosphatase and an excess of staurosporine. The adenylate cyclase converts the remaining ATP to cAMP and pyrophospahte, the pyrophosphatase converts the pyrophosphate to phosphate and the staurosporine inhibits the activity of the FYN kinase, the net effect is to remove all residual ATP while preserving the ADP produced by FYN kinase. The terminated reactions are incubated for 40 minutes at room temperature, prior to addition of the Kinase Detection Reagent component of the ADP-Glo™ Kinase Assay kit to each well. The Kinase Detection Reagent comprises pyruvate kinase, phosphoenol pyruvate (PEP), luciferin and luciferase. The pyruvate kinase converts PEP to pyruvate and in the process generates ATP from the residual ADP present in the terminated reaction. […]
On to `Cc1ccccc1CNc1nn2c(-c3cccc(C(=O)N(C)C)c3)cnc2s1` [699_8074_0349, N,N-dimethyl-3-[2-(o-tolylmethyl-amino)imidazo[2,1-b][1,3,4]thia-diazol-5-yl]benzamide], for which the IC50 worked out at 3730 nM.

For the compound `OCc1ccc(-c2cnc3ccc(NCc4ccco4)nn23)cc1` [229_0144_0285, [4-[6-(2-furylmethyl-amino)imidazo[1,2-b]pyridazin-3-yl]phenyl] methanol], the IC50 worked out at 2200 nM.

Regarding `O=CNc1cc(-c2ccc(C(=O)N3CCOCC3)cc2)cn2c(-c3ccc(F)cc3)cnc12` [788_0339_0337, N-[3-(4-fluorophenyl)-6-[4-(morpholine-4-carbonyl)phenyl]imidazo[1,2-a]pyridin-8-yl]formamide], the IC50 was 3590 nM.

For `COc1ccc(-c2cnc3ccc(Cc4ccccc4)nn23)cc1OC` [828_0079_6001, 6-benzyl-3-(3,4-dimethoxyphen-yl)imidazo[1,2-b]pyridazine], the IC50 was found to be 974 nM.

Turning to `NC(=O)c1cccc(-c2cnc3sc(NCC4CC4)nn23)c1` [699_4051_0347, 3-[2-(cyclopropyl-methyl-amino)imidazo [2,1-b][1,3,4]thia-diazol-5-yl]benzamide], the IC50 stood at 1940 nM.

Take `OCc1cccc(-c2cnc3ccc(NCc4ccco4)nn23)c1` [229_0144_0291, [3-[6-(2-furylmethyl-amino)imidazo[1,2-b]pyridazin-3-yl]phenyl] methanol]: the IC50 was determined as 3860 nM.

For the compound `NC(=O)c1ccc(-c2cnc3ccc(Cc4ccc(F)cc4)nn23)cc1` [828_0346_6370, 4-[6-[(4-fluorophenyl)methyl]imidazo [1,2-b]pyridazin-3-yl]benzamide], the IC50 worked out at 1300 nM.

For `Oc1cccc(-c2cncc(NCc3ccoc3)c2)c1` [081_0284_2069, 3-[5-(3-furylmethyl-amino)-3-pyridyl]phenol], the half-maximal inhibitory concentration (IC50) is 10900 nM.

With `CC(=O)c1cccc(-c2cnc3ccc(NCc4ccco4)nn23)c1` [229_0144_4145, 1-[3-[6-(2-furylmethyl-amino)imidazo[1,2-b]pyridazin-3-yl]phenyl] ethanone], the concentration for half-maximal inhibition (IC50) amounted to 997 nM.

As to `CC(=O)Nc1cccc(-c2cncc(NCc3ccco3)n2)c1` [035_0144_0081, N-[3-[6-(2-furylmethyl-amino)pyrazin-2-yl]phenyl] acetamide], the IC50 is 11200 nM.

Regarding `c1csc(-c2cnc3ccc(-c4ccncc4)nn23)c1` [828_4147_0069, 6-(4-pyridyl)-3-(2-thienyl)imidazo [1,2-b]pyridazine], the IC50 stood at 497 nM.

The same assay, now with this note: secondary screen, candidate compounds re-synthesized and expanded.
On to `CN(C)C(=O)c1cccc(-c2cnc3sc(NCc4ccc5c(c4)OCO5)nn23)c1` [BF000717214, 3-[2-(1,3-benzodioxol-5-ylmethyl-amino)imi-dazo[2,1-b][1,3,4]thia-diazol-5-yl]-N,N-dimethyl-benzamide], for which the IC50 amounted to 1930 nM.

In the case of `COc1cc(-c2cnc3ccc(NCc4ccccn4)nn23)ccc1O` [BF000817095, 2-methoxy-4-[6-(2-pyridylmeth-ylamino)imi-dazo[1,2-b]pyridazin-3-yl]phenol], the IC50 turned out to be 233 nM.

On to `COc1cc(-c2cnc3ccc(NCc4cccs4)nn23)ccc1O` [BF000145954, 2-methoxy-4-[6-(2-thienylmeth-ylamino)imi-dazo[1,2-b]pyridazin-3-yl]phenol], for which the IC50 was 166 nM.

`CN(C)C(=O)c1cccc(-c2cnc3sc(NCC4CC4)nn23)c1` [BF000714798, 3-[2-(cyclopropyl-methylamino)imidazo[2,1-b][1,3,4]thia-diazol-5-yl]-N,N-dimethyl-benzamide]: the IC50 is 884 nM.
